Test results from US9144569B2, “Methods of administering an aromatase inhibitor, prostaglandin and GnRH for regulating ovulation in cattle” (UNIVERSITY OF SASKATCHEWAN, priority 2010, dated 2015).

Assays:
plasma LH = experiment: Example II: plasma LH and LH pulsatility during 3-day letrozole regimen; assay type: in vivo, cattle
Experimental: (§1) Four days after follicular ablation, heifers were given 500 μg of cloprostenol (PGF, Estrumate, Schering-Plough Animal Health, Pointe-Claire, QC, Canada) intramuscularly (im) to induce regression of the CL and to synchronize ovulation. The experiment was performed in two replicates (n=20-27 per replicate) and each heifer was used only once. In replicate 1, heifers were assigned randomly at the time of ovulation (Day 0) to the following groups and given a 3-day regimen of letrozole from Days 1 to 3 (n=5), Days 3 to 5 (n=5), Days 5 to 7 (n=5), or no treatment (control group, n=5). In replicate 2, heifers were similarly assigned to groups and given letrozole from Days 1 to 3, (n=5), Days 3 to 5 (n=4), or Days 5 to 7 (n=4), but untreated control heifers were arranged in three sub-groups to serve as contemporaneous controls for each letrozole-group during intensive blood sampling periods (i.e., control Days 1 to 3, n=4; control Days 3 to 5, n=4; and control Days 5 to 7, n=5). For practical purposes, the total dose of letrozole (250 μg/kg) was calculated on the basis of an average weight of 350 kg for all heifers and administered intravenously in daily divided doses over 3 days (85 μg/kg per day). For intravenous injection, letrozole was prepared in 95% ethanol to a final concentration of 5 mg/ml, resulting in an injection volume of 6 mL/day.
Blood samples were collected by jugular or coccygeal venipuncture into 10 ml heparinised, vacuum tubes (Vacutainer tubes; Becton Dickinson Vacutainer Systems, Franklin Lakes, N.J., USA). Blood samples were collected daily from pre-treatment ovulation to post-treatment ovulation. In replicate 1, additional samples were collected from letrozole-treated heifers every 12 hours from the beginning of treatment to first wave emergence. In replicate 2, heifers were sampled at 15 minute intervals for the first 8 hours after the second dose of letrozole (i.e., second day of treatment) using an indwelling jugular catheter, as described previously. Blood samples were centrifuged at 1500×g for 20 minutes, and plasma was separated and stored in plastic tubes at −20° C.
Plasma LH concentrations were determined in duplicate using a double-antibody radioimmunoassay (NIDDK-bLH4). The minimum and maximum values along the standard curve were 0.06 and 8 ng/mL, respectively. The intra- and inter-assay coefficients of variation were 7.9% and 2.5%, respectively, for low reference samples (mean, 0.85 ng/mL) and 8.6% and 9.5%, respectively, for high reference samples (mean, 2.5 ng/mL).
Statistical analyses were done using the Statistical Analysis System software package (SAS Learning Edition 9.1, 2006; SAS Institute Inc., Cary, N.C., USA). Time-series hormone data, plasma letrozole concentration, and follicular and luteal diameter profiles were analysed by repeated measures, using the PROC MIXED procedure. The main effects were treatment, time, and their interactions. […] Single point measurements (interwave and interovulatory intervals, interval from ovulation to onset of CL regression, mean and basal LH concentrations, LH pulse amplitude and frequency, and pharmacokinetic parameters for letrozole) were analysed by analysis of variance. […] If significant main effects or interactions (P≦0.05) were detected, Tukey's post-hoc test was used for multiple comparisons.
Due to individual variability in circulating hormone concentrations among heifers, and because our objective was to determine the effect of treatment within individuals, data on LH and FSH concentrations were transformed to a percentage of the mean concentration of the two first data points collected (Days 0 and 1) for each individual heifer before analysis of variance for repeated measures. For the same reasons, estradiol concentrations were transformed to a percentage of the mean concentration of two pre-treatment data points ([…] each individual heifer before statistical analysis. […]

plasma FSH = experiment: Example II: plasma FSH during 3-day letrozole regimen; assay type: in vivo, cattle; conditions: 3-day regimen
Experimental: as §1, with “For intravenous injection, letrozole was prepared in 95% ethanol to a final concentration of 5 mg/ml, resulting in an injection volume of 6 mL/day.” left out
Plasma FSH concentrations were determined in duplicate using a double-antibody radioimmunoassay using NIDDK-anti-oFSH-1 primary antibody and expressed as USDA bovine FSH-I1 units. […]

[1] = treatment period Day 1-3, 15 min samples over 8 hours
[2] = treatment period Day 3-5, 15 min samples over 8 hours
[3] = treatment period Day 5-7, 15 min samples over 8 hours

N#Cc1ccc(C(c2ccc(C#N)cc2)n2cncn2)cc1 [Letrozole, letrozole]
plasma LH concentrations among groups, daily samples (plasma LH; 3-day regimen): No significant differences
plasma LH, percent of the mean of Days 0 and 1 (plasma LH; AM samples collected during treatment): 93.6±14.85%
Basal LH (plasma LH; [1]): 0.38 ± 0.11 ng/mL
LH pulse amplitude (plasma LH; [1]): 0.46 ± 0.15 ng/mL
LH pulse frequency (plasma LH; [1]): 0.95 pulses/h
Mean LH (plasma LH; treatment period Day 1-3, 15 min samples over 8 hours after second dose): 0.52 ± 0.15 ng/mL
Basal LH (plasma LH; [2]): 0.08 ± 0.03 ng/mL
LH pulse amplitude (plasma LH; [2]): 0.40 ± 0.18 ng/mL
LH pulse frequency (plasma LH; [2]): 0.53 pulses/h
Mean LH (plasma LH; [2]): 0.15 ± 0.5 ng/mL
Basal LH (plasma LH; [3]): 0.13 ± 0.02 ng/mL
LH pulse amplitude (plasma LH; [3]): 0.88 ± 0.37 ng/mL
LH pulse frequency (plasma LH; [3]): 0.41 pulses/h
Mean LH (plasma LH; [3]): 0.21 ± 0.04 ng/mL
plasma FSH levels compared with respective controls (plasma FSH): No differences
